Measured values as given in paper PMC12677607, “Identification of a Pair of Linear or Cyclic Naturally Inspired Bifunctional Lipopeptide Antibiotics That Overcome Antimicrobial Resistance” (Advanced Science, 2025).
In brackets after ≈: the same amount, converted by molar mass. Bridge positions count the residues as written; N and C are the ends. Square brackets hold non-standard residues; d marks the D form. Peptide text beside a SMILES is read from it. * marks the point of attachment. Myristoyl = CCCCCCCCCCCCCC(=O)*; Orn = NCCC[C@H](N)C(=O)O; Dab = NCC[C@H](N)C(=O)O; Dap = NC[C@H](N)C(=O)O

Legend:
Format in all cases: cell-based
[1] = system: Acinetobacter baumannii 1104008; assay: microbe, parasite or virus in culture; settings: Table S11; LB broth, 37 °C, 16 h, n = 2
Outline: (§1)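 MIC = lowest peptide concentration with no visible growth; LB broth microdilution, n = 2. Inoculum: overnight culture diluted 5000× (S. aureus 10000×). Peptides serially diluted 2-fold, 64–0.125 µg mL^−1 in the broth added to cells.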

[2] = system: Acinetobacter baumannii ATCC 17978; assay: microbe, parasite or virus in culture; settings: ATCC 17978, 16 h
Outline: as §1

[3] = system: Acinetobacter baumannii ATCC 19606; assay: microbe, parasite or virus in culture; settings: ATCC 19606, 16 h
Outline: as §1

Enterococcus faecalis 26 = assay: microbe, parasite or virus in culture; settings: 26, 16 h
Outline: as §1

Enterococcus faecalis 28 = assay: microbe, parasite or virus in culture; settings: 28, 16 h
Outline: as §1

[4] = system: Enterococcus faecalis ATCC 29212; assay: microbe, parasite or virus in culture; settings: ATCC 29212, 16 h
Outline: as §1

[5] = system: Enterococcus faecium 35682; assay: microbe, parasite or virus in culture; settings: Table S11; LB broth, 37 °C, 16 h, n = 2
Outline: as §1

[6] = system: Klebsiella pneumoniae ATCC 13883; assay: microbe, parasite or virus in culture; settings: ATCC 13883, 16 h
Outline: as §1

[7] = system: Klebsiella pneumoniae CRKP 5452; assay: microbe, parasite or virus in culture; settings: for MIC Klebsiella pneumoniae CRKP 5452: Table S11, LB broth, 37 °C, 16 h, n = 2
Outline: as §1

[8] = system: Klebsiella pneumoniae CRKP HS11286; assay: microbe, parasite or virus in culture; settings: for MIC Klebsiella pneumoniae CRKP HS11286: CRKP HS11286, 16 h
Outline: as §1

[9] = system: Klebsiella pneumoniae NCTC 5056; assay: microbe, parasite or virus in culture; settings: NCTC 5056, 16 h
Outline: as §1

[10] = system: Pseudomonas aeruginosa ATCC 9027; assay: microbe, parasite or virus in culture; settings: ATCC 9027, 16 h
Outline: as §1

[11] = system: Pseudomonas aeruginosa PAO1; assay: microbe, parasite or virus in culture
Outline: as §1

[12] = system: Salmonella enterica ATCC 14028; assay: microbe, parasite or virus in culture; settings: ATCC 14028, 16 h
Outline: as §1

[13] = system: Salmonella typhimurium LXX; assay: microbe, parasite or virus in culture; settings: murium LXX, 16 h
Outline: as §1

[14] = system: Staphylococcus aureus ATCC 25923; assay: microbe, parasite or virus in culture; settings: ATCC 25923, 16 h
Outline: as §1

[15] = system: Staphylococcus aureus ATCC 6538; assay: microbe, parasite or virus in culture; settings: ATCC 6538, 16 h
Outline: as §1

[16] = system: Staphylococcus aureus Newman; assay: microbe, parasite or virus in culture; settings: Newman, 16 h
Outline: as §1

[17] = system: Staphylococcus aureus USA300; assay: microbe, parasite or virus in culture; settings: for MIC Staphylococcus aureus USA300: Table S11, LB broth, 37 °C, 16 h, n = 2
Outline: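 Growth inhibition read visually; MIC taken as lowest inhibitory concentration. LB medium; inocula from overnight cultures diluted 5000-fold, S. aureus 10000-fold. Peptide range 64 to 0.125 µg mL^−1 (2-fold, pre-mix), two independent determinations.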

[18] = system: Streptococcus mutans ATCC 25175; assay: microbe, parasite or virus in culture; settings: ATCC 25175, 16 h
Outline: as §1

[19] = system: Streptococcus pyogenes ATCC 19615; assay: microbe, parasite or virus in culture; settings: Table S11; LB broth, 37 °C, 16 h, n = 2
Outline: as §1

[20] = system: Vibrio alginolyticus XSBZ14; assay: microbe, parasite or virus in culture; settings: 16 h
Outline: as §1

S. aureus USA300 [21] = assay: Time-dependent killing assay; settings: 4× MIC, time-dependent killing curve, n = 3
Protocol: Overnight cultures of S. aureus USA300 were diluted 1:10000 in LB broth and incubated for 2 h at 37 °C and 200 rpm. […] After 15, 30, 60, 120, 180, 240, 300, and 360 min, 100 µL of cell suspension were collected, serially diluted, and plated on LB agar plates. After an incubation of 16 h at 37 °C, bacterial colonies were counted. Experiments were performed three independent times (n = 3).

S. aureus USA300 [22] = assay: UDP-MurNAc-pentapeptide accumulation assay; settings: 8 × MIC, 1 hr, LC-MS
Protocol: To determine the effects of aquicidine L or aquicidine C4 on bacterial cell wall biosynthesis of S. aureus USA300, the accumulation of the precursor UDP‐MurNAc‐pentapeptide was investigated in antibiotic‐treated cell cultures. 50 µL of overnight cultures were transferred to 5 mL of fresh LB broth and cultured to 0.5 of OD600 at 37 °C and 200 rpm. The cultures were treated with 130 µg/mL of chloramphenicol for 15 min at 37 °C and 200 rpm, and 128 µg/mL of aquicidine L or 32 µg/mL aquicidine C4 was added. 8 µg/mL of vancomycin and DMSO were used as positive and negative controls, respectively. After an incubation of 1 hr, the cell pellet from 0.5 mL of the cell cultures was resuspended in 30 µL of ddH2O and then boiled for 15 min. Finally, the supernatant was collected and then detected using an Agilent 1290 Series High‐Performance Liquid Chromatography (HPLC) coupled to a 6546 Series QTOF mass spectrometer equipped with an XBridge C18 column (4.6 × 150 mm, 5 µm). Solvent A = H2O (0.1% v/v formic acid) and solvent B = CH3CN (0.1% v/v formic acid) were used for HPLC analysis with 0.4 mL min^−1 of flow rate at 25 °C. Gradient conditions were as follows: t = 0‐1 min, 3% solvent B; t = 2‐7 min, 3‐95% solvent B; t = 7‐8 min, 95% solvent B; t = 8–9 min, 95‐3% solvent B; t = 9–10 min, 3% solvent B.

Row | SMILES | MIC Acinetobacter baumannii 1104008 [1] | MIC Acinetobacter baumannii ATCC 17978 [2] | MIC Acinetobacter baumannii ATCC 19606 [3] | MIC Enterococcus faecalis 26 (Enterococcus faecalis 26) | MIC Enterococcus faecalis 28 (Enterococcus faecalis 28) | MIC Enterococcus faecalis ATCC 29212 [4] | MIC Enterococcus faecium 35682 [5] | MIC Klebsiella pneumoniae ATCC 13883 [6] | MIC Klebsiella pneumoniae CRKP 5452 [7] | MIC Klebsiella pneumoniae CRKP HS11286 [8] | MIC Klebsiella pneumoniae NCTC 5056 [9] | MIC Pseudomonas aeruginosa ATCC 9027 [10] | MIC Salmonella enterica ATCC 14028 [12] | MIC Salmonella typhimurium LXX [13] | MIC Staphylococcus aureus ATCC 25923 [14] | MIC Staphylococcus aureus ATCC 6538 [15] | MIC Staphylococcus aureus Newman [16] | MIC Staphylococcus aureus USA300 [17] | MIC Streptococcus mutans ATCC 25175 [18] | MIC Streptococcus pyogenes ATCC 19615 [19] | further results
1 | CCCCCCCCCCCCCC(=O)N[C@@H](CN)C(=O)N[C@H](C(=O)N[C@@H](CC(C)C)C(=O)N[C@H]1COC(=O)[C@H](Cc2ccccc2)NC(=O)[C@H](CC(N)=O)NC(=O)[C@H](CCCN)NC(=O)[C@H]([C@@H](C)CC)NC(=O)[C@H](Cc2ccccc2)NC(=O)[C@H](CN)NC(=O)[C@H](CCN)NC1=O)[C@@H](C)O [synAQU5-C4] (Myristoyl-[Dap]TLS[Dab][Dap]FI[Orn]NF; ester 4-C) | 16 mg/L (≈ 11.3 µM) | 32 mg/L (≈ 22.5 µM) | 32 mg/L (≈ 22.5 µM) | 2 mg/L (≈ 1.41 µM) | 4 mg/L (≈ 2.82 µM) | 4 mg/L (≈ 2.82 µM) | 4 mg/L (≈ 2.82 µM) | > 64 mg/L | 32 mg/L (≈ 22.5 µM) | 32 mg/L (≈ 22.5 µM) | > 64 mg/L | 16 mg/L (≈ 11.3 µM) | 32 mg/L (≈ 22.5 µM) | 32 mg/L (≈ 22.5 µM) | 4 mg/L (≈ 2.82 µM) | 4 mg/L (≈ 2.82 µM) | 4 mg/L (≈ 2.82 µM) | 4 mg/L (≈ 2.82 µM) | 4 mg/L (≈ 2.82 µM) | 2 mg/L (≈ 1.41 µM) | MIC Pseudomonas aeruginosa PAO1 ([11]; PAO1, 16 h): 32 mg/L (≈ 22.5 µM); antibacterial activity (MIC) S. aureus USA300 ([17]; Figure S127b, wild type): 4 mg/L; MIC Vibrio alginolyticus XSBZ14 [20]: 32 mg/L (≈ 22.5 µM); bactericidal activity, number of viable cells (S. aureus USA300 [21]): decreased the number of viable cells by two orders of magnitude after 5 h; accumulation of UDP-MurNAc-pentapeptide (S. aureus USA300 [22]): did not show an obvious accumulation
2 | CCCCCCCCCCCCCC(=O)N[C@@H](CN)C(=O)N[C@H](C(=O)N[C@@H](CC(C)C)C(=O)N[C@@H](CO)C(=O)N[C@@H](CCN)C(=O)N[C@@H](CN)C(=O)N[C@@H](Cc1ccccc1)C(=O)N[C@H](C(=O)N[C@@H](CCCN)C(=O)N[C@@H](CC(N)=O)C(=O)N[C@@H](Cc1ccccc1)C(=O)O)[C@@H](C)CC)[C@@H](C)O [synAQU5-L] (Myristoyl-[Dap]TLS[Dab][Dap]FI[Orn]NF-OH) | 4 mg/L (≈ 2.78 µM) | 4 mg/L (≈ 2.78 µM) | 8 mg/L (≈ 5.56 µM) | 8 mg/L (≈ 5.56 µM) | 16 mg/L (≈ 11.1 µM) | 32 mg/L (≈ 22.3 µM) | 16 mg/L (≈ 11.1 µM) | 8 mg/L (≈ 5.56 µM) | 4 mg/L (≈ 2.78 µM) | 4 mg/L (≈ 2.78 µM) | 8 mg/L (≈ 5.56 µM) | 4 mg/L (≈ 2.78 µM) | 4 mg/L (≈ 2.78 µM) | 8 mg/L (≈ 5.56 µM) | 32 mg/L (≈ 22.3 µM) | 16 mg/L (≈ 11.1 µM) | 32 mg/L (≈ 22.3 µM) | 16 mg/L (≈ 11.1 µM) | 16 mg/L (≈ 11.1 µM) | 8 mg/L (≈ 5.56 µM) | antibacterial activity (MIC) K. pneumoniae CRKP 5452 ([7]; Figure S127a, wild type): 4 mg/L; antibacterial activity (MIC) K. pneumoniae CRKP HS11286 ([8]; Figure S127a): 4 mg/L; MIC Pseudomonas aeruginosa PAO1 ([11]; Table S11, LB broth, 37 °C, 16 h, n = 2): 4 mg/L (≈ 2.78 µM); MIC Vibrio alginolyticus XSBZ14 [20]: 8 mg/L (≈ 5.56 µM); bactericidal activity, number of viable cells (S. aureus USA300 [21]): only inhibited the growth of S. aureus USA300 within 2 h; accumulation of UDP-MurNAc-pentapeptide (S. aureus USA300 [22]): did not show an obvious accumulation
